{"source": "patent US8551937B2", "about": "“Peptide having an extending action for half-life of object peptide in plasma” (priority 2008, dated 2013)", "key": {"[1]": {"assay": "Antigenicity by indirect ELISA of serum after repeated administration", "format": "in vivo", "details": "0.25 mg/kg subcutaneous twice daily for 29 days, mouse serum", "experimental": "In order to investigate whether an antibody to native CNP-22 or chimeric CNP (B) was produced using serum collected from the mice after completion of repeated administration for four weeks in Example 4, antigenicity of each of them was evaluated by means of an indirect ELISA. A peptide solution (100 μL) adjusted to 1.0 ng/μL using 50 mM of […] at pH 8.5 was added to a 96-well plate (manufactured by Nalge Nunc International; Denmark) treated with Maxisoap and subjected to a coating operation overnight at 4° C. A blocking was carried out at room temperature for 1 hour using a 2.0% Block Ace (manufactured by Snow Brand Milk). […] After washing the wells, an anti-mouse IgG HRPAb (manufactured by Zymed Laboratories, U.S.A.) was added thereto. The antigen-antibody reaction was conducted for 1 hour at room temperature, then the wells were washed and a substrate ABTS (manufactured by KPL, U.S.A.) was added thereto."}, "[2]": {"assay": "CNP immunoreactivity concentration in plasma, half-life after intravenous administration (Example 9)", "details": "male, SD, rat, in vivo, 20 nmol/kg"}, "[3]": {"assay": "CNP immunoreactivity concentration in plasma after administration to rats (competitive RIA), pharmacokinetic parameters (Example 2)", "format": "in vivo, rat", "details": "for half-life: read-out: T½", "experimental": "Pharmacokinetic parameters were calculated from the resulting changes in immunoreactivity concentrations in plasma. At that time, WinNonlin Professional Ver. 4.0.1 (manufactured by Pharsight Corporation, U.S.A.) was used as the analytical software. Method for the calculation of each parameter is mentioned as follows.\nConcentration at time 0 (C0; extrapolated value, ng/mL), area under the curve for concentration in plasma vs. time (AUC; ng.min/mL) and quenching half-life (T½; minute(s)) were calculated as follows. C0 was calculated as a value at time by means of extrapolation from the changes in immunoreactivity concentration in plasma at each blood collection period. AUC was calculated by a trapezoidal method using the immunoreactivity concentrations in plasma at all measuring points (t) and an extrapolated value until the infinitive time was determined. T½ was calculated by means of a least-squares method from the inclination of a straight line connecting several points in a disappearing phase of the immunoreactivity concentration in plasma. In the case of a subcutaneous administration, C0 was not determined but the maximum concentration in plasma (Cmax; ng/mL) and the time reaching the maximum concentration in plasma (Tmax; min) were determined.\nChanges in CNP immunoreactivity concentration in plasma of native CNP-22 and chimeric peptide (chimeric CNP) where a half-life-extension peptide was added to CNP were investigated.\nThe experiment was conducted in the same manner as in Example 1 that rats where polyethylene tube was previously inserted into thigh artery were used under an anesthetizing condition with Nembutal and male SD strain rats of 7 weeks age (purchased from Nippon Charles River) were used where one group comprised 3 rats. […] At that time, a rabbit polyclonal antibody (#2) recognizing a ring part of native CNP-22 was used as an antibody and ^125I-[Tyr^0] CNP was used as a labeling compound. Pharmacokinetic analysis was carried out by the same method as in Example 1."}, "[4]": {"biological_target": "T1, neutral endopeptidase (NEP) (Homo sapiens, UniProt P08473)", "T1 construct": "purchased R&D Systems, Inc., U.S.A", "T1 sequence (P08473 whole entry)": "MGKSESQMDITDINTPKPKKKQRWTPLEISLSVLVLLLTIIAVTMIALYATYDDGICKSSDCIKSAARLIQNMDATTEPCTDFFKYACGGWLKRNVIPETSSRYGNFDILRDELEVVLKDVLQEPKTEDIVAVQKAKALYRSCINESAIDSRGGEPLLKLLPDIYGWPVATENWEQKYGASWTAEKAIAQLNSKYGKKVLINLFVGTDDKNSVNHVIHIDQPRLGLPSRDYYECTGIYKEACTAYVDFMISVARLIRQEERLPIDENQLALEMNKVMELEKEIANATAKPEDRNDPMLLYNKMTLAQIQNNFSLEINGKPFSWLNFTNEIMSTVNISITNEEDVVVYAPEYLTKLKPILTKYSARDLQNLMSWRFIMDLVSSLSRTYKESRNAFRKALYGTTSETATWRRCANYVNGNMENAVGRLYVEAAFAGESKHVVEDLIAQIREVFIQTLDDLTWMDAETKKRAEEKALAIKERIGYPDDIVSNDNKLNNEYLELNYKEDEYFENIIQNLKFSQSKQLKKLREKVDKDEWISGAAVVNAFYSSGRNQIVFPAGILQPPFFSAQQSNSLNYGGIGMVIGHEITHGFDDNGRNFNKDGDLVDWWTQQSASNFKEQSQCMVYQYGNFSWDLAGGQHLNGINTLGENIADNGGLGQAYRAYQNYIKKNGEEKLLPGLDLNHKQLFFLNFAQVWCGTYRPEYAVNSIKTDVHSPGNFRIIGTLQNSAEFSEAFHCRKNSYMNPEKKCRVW", "assay": "Resistance to peptidase: stability to hNEP (HPLC residual rate)", "format": "in vitro ADME", "details": "human, isolated enzyme neprilysin; hNEP, 37° C., 1 hour, 0.5 μg/mL, 20 mM MES pH 6.5, mean of N = 2; read-out: Residual Rate", "experimental": "(§1) The experiment was conducted in N=2 for each sample. Native CNP-22, chimeric CNP (A, B) (structure mentioned already; final concentration: 0.5 μg/mL) and 100 μL of reaction solution (medium: 20 mM MES, pH 6.5) of human type recombinant neutral endopeptidase (hNEP, manufactured by R&D Systems, Inc., U.S.A.) were prepared. […] Distilled water (100 μL) was added to the sample after boiling followed by well mixing and 50 μL thereof was analyzed in a water-acetonitrile system using a high-performance liquid chromatography system LC-10A (manufactured by Shimadzu). The analytical data were analyzed by a Chromato-Pack (CRA-10A, manufactured by Shimadzu) and area of the peak zone of unchanged substance was calculated. The area of average zone of unchanged substance when made to react at 37° C. was divided by the area of average zone of the boiled sample to calculate the residual rate of the unchanged substance after 1 hour."}, "[5]": {"biological_target": "T2, human type recombinant neutral endopeptidase (hNEP) (Homo sapiens, UniProt P08473)", "T2 construct": "purchased R&D Systems, Inc., U.S.A", "T2 sequence (P08473 whole entry)": "as above", "assay": "Resistance to peptidase: stability to hNEP (HPLC residual rate)", "format": "in vitro ADME", "details": "hNEP, 37° C., 1 hour, 0.5 μg/mL, 20 mM MES pH 6.5, mean of N = 2", "experimental": "as §1"}, "[6]": {"details": "rat, plasma, sc, subcutaneous, 0.1 mg/kg, male rats, N = 3, mean ± SD"}, "[7]": {"details": "rat, plasma, intravenous, 0.1 mg/kg, male rats, N = 3, mean ± SD"}}, "data": [{"smiles": "CC[C@H](C)[C@@H]1NC(=O)[C@H](CCCNC(=N)N)NC(=O)[C@H](CC(=O)O)NC(=O)[C@H](CC(C)C)NC(=O)[C@H](CCCCN)NC(=O)[C@H](CC(C)C)NC(=O)CNC(=O)[C@H](Cc2ccccc2)NC(=O)[C@@H](NC(=O)CNC(=O)[C@H](CCCCN)NC(=O)[C@H](CO)NC(=O)[C@H](CC(C)C)NC(=O)CN)CSSC[C@@H](C(=O)O)NC(=O)CNC(=O)[C@H](CC(C)C)NC(=O)CNC(=O)[C@H](CO)NC(=O)[C@H](CCSC)NC(=O)[C@H](CO)NC(=O)CNC1=O", "note": "[Native CNP-22]", "values": [{"measurement": "antibody value", "setting": "[1]", "value": "no rise"}, {"measurement": "half-life", "setting": "[2]", "value": 1.6, "unit": "min"}, {"measurement": "AUC(0-inf)", "setting": "[3]; [6]", "value": 17.7, "unit": "ng·h/mL"}, {"measurement": "Cmax", "setting": "[3]; [6]", "value": "55.6 ± 4.5", "unit": "ng/mL"}, {"measurement": "Tmax", "setting": "[3]; [6]", "value": 5, "unit": "min"}, {"measurement": "half-life", "setting": "[3]; [6]", "value": "7.8 ± 0.9", "unit": "min"}, {"measurement": "AUC(0-inf)", "setting": "[3]; [7]", "value": 25.6, "unit": "ng·h/mL"}, {"measurement": "C0", "setting": "[3]; rat, plasma, intravenous, 0.1 mg/kg, male rats, N = 3, mean ± SD, extrapolated value", "value": "1020 ± 273", "unit": "ng/mL"}, {"measurement": "half-life", "setting": "[3]; [7]", "value": "2.93 ± 0.23", "unit": "min"}, {"measurement": "CNP immunoreactivity concentration in plasma", "setting": "[3]; subcutaneous, after 60 minutes from the administration", "value": "almost disappeared"}, {"measurement": "remaining at 1 h, 0.5 μg/mL", "setting": "[4]", "value": 16.7, "unit": "%"}, {"measurement": "Residual Rate", "setting": "[5]", "value": 16.7, "unit": "%"}]}]}
